Assay: Evaluation of stability in liver microsome
Settings: mouse liver microsome 0.25 mg/mL, test compound 1 μM, 37° C., 30 minutes

In order of falling “Remaining (%)” value:
1. COCc1ccc(NC(=O)c2c(C#Cc3cccc(F)c3)n(C3(C)CC3)c3ncnc(N)c23)cc1 [Example 130, 4-amino-6-((3-fluorophenyl)ethynyl)-N-(4-(methoxymethyl)phenyl)-7-(1-methylcyclopropyl)-7H-pyrrolo[2,3-d]pyrimidine-5-carboxamide]  84%
2. COCc1ccc(NC(=O)c2c(C#Cc3cnc4[nH]ccc4c3)n(C3(C)CC3)c3ncnc(N)c23)cc1 [Example 128, 6-((1H-pyrrolo[2,3-b]pyridin-5-yl)ethynyl)-4-amino-N-(4-(methoxymethyl)phenyl)-7-(1-methylcyclopropyl)-7H-pyrrolo[2,3-d]pyrimidine-5-carboxamide]  82%
3. COCc1ccc(NC(=O)c2c(C#Cc3ccccc3OC)n(C3(C)CC3)c3ncnc(N)c23)cc1 [Example 113, 4-amino-N-(4-(methoxymethyl)phenyl)-6-((2-methoxyphenyl)ethynyl)-7-(1-methylcyclopropyl)-7H-pyrrolo[2,3-d]pyrimidine-5-carboxamide]  79%
4. COCc1ccc(NC(=O)c2c(C#CC(C)(C)N)n(C3(C)CC3)c3ncnc(N)c23)cc1 [Example 134, 4-amino-6-(3-amino-3-methylbut-1-yn-1-yl)-N-(4-(methoxymethyl)phenyl)-7-(1-methylcyclopropyl)-7H-pyrrolo[2,3-d]pyrimidine-5-carboxamide]  79%
5. COCc1ccc(NC(=O)c2c(OCCN3CCCC3=O)n(C3(C)CC3)c3ncnc(N)c23)cc1 [Example 136, 4-amino-N-(4-(methoxymethyl)phenyl)-7-(1-methylcyclopropyl)-6-(2-(2-oxopyrrolidin-1-yl)ethoxy)-7H-pyrrolo[2,3-d]pyrimidine-5-carboxamide]  78%
6. COCc1ccc(NC(=O)c2c(C#CCN3CCN(C)CC3)n(C3(C)CC3)c3ncnc(N)c23)cc1 [Example 132, 4-amino-N-(4-(methoxymethyl)phenyl)-7-(1-methylcyclopropyl)-6-(3-(4-methylpiperazin-1-yl)prop-1-yn-1-yl)-7H-pyrrolo[2,3-d]pyrimidine-5-carboxamide]  77%
7. COCc1ccc(NC(=O)c2c(OCC(C)OC)n(C3(C)CC3)c3ncnc(N)c23)cc1 (centres unmarked) [Example 100, 4-amino-N-(4-(methoxymethyl)phenyl)-6-(2-methoxypropoxy)-7-(1-methylcyclopropyl)-7H-pyrrolo[2,3-d]pyrimidine-5-carboxamide]  76%
8. COCc1ccc(NC(=O)c2c(C#Cc3c[nH]c4ccccc34)n(C3(C)CC3)c3ncnc(N)c23)cc1 [Example 121, 6-((1H-indol-3-yl)ethynyl)-4-amino-N-(4-(methoxymethyl)phenyl)-7-(1-methylcyclopropyl)-7H-pyrrolo[2,3-d]pyrimidine-5-carboxamide]  74%
9. COCc1ccc(NC(=O)c2c(C#CCC3(O)COC3)n(C3(C)CC3)c3ncnc(N)c23)cc1 [Example 125, 4-amino-6-(3-(3-hydroxyoxetan-3-yl)prop-1-yn-1-yl)-N-(4-(methoxymethyl)phenyl)-7-(1-methylcyclopropyl)-7H-pyrrolo[2,3-d]pyrimidine-5-carboxamide]  74%
10. CCn1cc(C#Cc2c(C(=O)Nc3ccc(COC)cc3)c3c(N)ncnc3n2C2(C)CC2)cn1 [Example 118, 4-amino-6-((1-ethyl-1H-pyrazol-4-yl)ethynyl)-N-(4-(methoxymethyl)phenyl)-7-(1-methylcyclopropyl)-7H-pyrrolo[2,3-d]pyrimidine-5-carboxamide]  73%
11. COCc1ccc(NC(=O)c2c(C#Cc3ccc(Cl)nc3)n(C3(C)CC3)c3ncnc(N)c23)cc1 [Example 120, 4-amino-6-((6-chloropyridin-3-yl)ethynyl)-N-(4-(methoxymethyl)phenyl)-7-(1-methylcyclopropyl)-7H-pyrrolo[2,3-d]pyrimidine-5-carboxamide]  72%
12. COCc1ccc(NC(=O)c2c(C#Cc3cccs3)n(C3(C)CC3)c3ncnc(N)c23)cc1 [Example 119, 4-amino-N-(4-(methoxymethyl)phenyl)-7-(1-methylcyclopropyl)-6-(thiophen-2-ylethynyl)-7H-pyrrolo[2,3-d]pyrimidine-5-carboxamide]  70%
13. CCOc1c(C(=O)Nc2ccc(COC)cc2)c2c(N)ncnc2n1C1(C)CC1 [Example 127, 4-amino-6-ethoxy-N-(4-(methoxymethyl)phenyl)-7-(1-methylcyclopropyl)-7H-pyrrolo[2,3-d]pyrimidine-5-carboxamide]  70%
14. COCc1ccc(NC(=O)c2c(C#Cc3csc(C)n3)n(C3(C)CC3)c3ncnc(N)c23)cc1 [Example 126, 4-amino-N-(4-(methoxymethyl)phenyl)-7-(1-methylcyclopropyl)-6-((2-methylthiazol-4-yl)ethynyl)-7H-pyrrolo[2,3-d]pyrimidine-5-carboxamide]  69%
15. COCc1ccc(NC(=O)c2c(OCC3CCOC3)n(C3(C)CC3)c3ncnc(N)c23)cc1 (centres unmarked) [Example 101, 4-amino-N-(4-(methoxymethyl)phenyl)-7-(1-methylcyclopropyl)-6-((tetrahydrofuran-3-yl)methoxy)-7H-pyrrolo[2,3-d]pyrimidine-5-carboxamide]  68%
16. COCc1ccc(NC(=O)c2c(/C=C/CO)n(C3(C)CC3)c3ncnc(N)c23)cc1 [Example 109, (E)-4-amino-6-(3-hydroxyprop-1-en-1-yl)-N-(4-(methoxymethyl)phenyl)-7-(1-methylcyclopropyl)-7H-pyrrolo[2,3-d]pyrimidine-5-carboxamide]  68%
17. COCc1ccc(NC(=O)c2c(OCC3CCOCC3)n(C3(C)CC3)c3ncnc(N)c23)cc1 [Example 141, 4-amino-N-(4-(methoxymethyl)phenyl)-7-(1-methylcyclopropyl)-6-((tetrahydro-2H-pyran-4-yl)methoxy)-7H-pyrrolo[2,3-d]pyrimidine-5-carboxamide]  68%
18. COCc1ccc(NC(=O)c2c(OCC3CCCO3)n(C3(C)CC3)c3ncnc(N)c23)cc1 (centres unmarked) [Example 135, 4-amino-N-(4-(methoxymethyl)phenyl)-7-(1-methylcyclopropyl)-6-((tetrahydrofuran-2-yl)methoxy)-7H-pyrrolo[2,3-d]pyrimidine-5-carboxamide]  67%
19. COCc1ccc(NC(=O)c2c(C#Cc3cccc(NCc4ccncc4)c3)n(C3(C)CC3)c3ncnc(N)c23)cc1 [Example 122, 4-amino-N-(4-(methoxymethyl)phenyl)-7-(1-methylcyclopropyl)-6-((3-((pyridin-4-ylmethyl)amino)phenyl)ethynyl)-7H-pyrrolo[2,3-d]pyrimidine-5-carboxamide]  62%
20. COCc1ccc(NC(=O)c2c(OCC3CCCCO3)n(C3(C)CC3)c3ncnc(N)c23)cc1 (centres unmarked) [Example 102, 4-amino-N-(4-(methoxymethyl)phenyl)-7-(1-methylcyclopropyl)-6-((tetrahydro-2H-pyran-2-yl)methoxy)-7H-pyrrolo[2,3-d]pyrimidine-5-carboxamide]  60%
21. COCc1ccc(NC(=O)c2c(C#CCC3(O)CCC3)n(C3(C)CC3)c3ncnc(N)c23)cc1 [Example 103, 4-amino-6-(3-(1-hydroxycyclobutyl)prop-1-yn-1-yl)-N-(4-(methoxymethyl)phenyl)-7-(1-methylcyclopropyl)-7H-pyrrolo[2,3-d]pyrimidine-5-carboxamide]  60%
22. CCn1nccc1C#Cc1c(C(=O)Nc2ccc(COC)cc2)c2c(N)ncnc2n1C1(C)CC1 [Example 114, 4-amino-6-((1-ethyl-1H-pyrazol-5-yl)ethynyl)-N-(4-(methoxymethyl)phenyl)-7-(1-methylcyclopropyl)-7H-pyrrolo[2,3-d]pyrimidine-5-carboxamide]  55%
23. CCOc1c(C(=O)Nc2ccc(-c3ccco3)cc2)c2c(N)ncnc2n1C1(C)CC1 [Example 116, 4-amino-6-ethoxy-N-(4-(furan-2-yl)phenyl)-7-(1-methylcyclopropyl)-7H-pyrrolo[2,3-d]pyrimidine-5-carboxamide]  55%
24. COCc1ccc(NC(=O)c2c(C#CC3(O)CCCC3)n(C3(C)CC3)c3ncnc(N)c23)cc1 [Example 131, 4-amino-6-((1-hydroxycyclopentyl)ethynyl)-N-(4-(methoxymethyl)phenyl)-7-(1-methylcyclopropyl)-7H-pyrrolo[2,3-d]pyrimidine-5-carboxamide]  55%
25. COCc1ccc(NC(=O)c2c(C#Cc3ccn[nH]3)n(C3(C)CC3)c3ncnc(N)c23)cc1 [Example 129, 6-((1H-pyrazol-5-yl)ethynyl)-4-amino-N-(4-(methoxymethyl)phenyl)-7-(1-methylcyclopropyl)-7H-pyrrolo[2,3-d]pyrimidine-5-carboxamide]  54%
26. COCc1ccc(NC(=O)c2c(OCC(C)(C)OC)n(C3(C)CC3)c3ncnc(N)c23)cc1 [Example 137, 4-amino-6-(2-methoxy-2-methylpropoxy)-N-(4-(methoxymethyl)phenyl)-7-(1-methylcyclopropyl)-7H-pyrrolo[2,3-d]pyrimidine-5-carboxamide]  53%
27. COCc1ccc(NC(=O)c2c(C#CC(O)C3CC3)n(C3(C)CC3)c3ncnc(N)c23)cc1 (centres unmarked) [Example 104, 4-amino-6-(3-cyclopropyl-3-hydroxyprop-1-yn-1-yl)-N-(4-(methoxymethyl)phenyl)-7-(1-methylcyclopropyl)-7H-pyrrolo[2,3-d]pyrimidine-5-carboxamide]  52%
28. COCc1ccc(NC(=O)c2c(C#CCN3CCCCC3)n(C3(C)CC3)c3ncnc(N)c23)cc1 [Example 105, 4-amino-N-[4-(methoxymethyl)phenyl]-7-(1-methylcyclopropyl)-6-(3-(piperidin-1-yl)prop-1-yn-1-yl)-7H-pyrrolo[2,3-d]pyrimidine-5-carboxamide]  52%
29. COCc1ccc(NC(=O)c2c(OCC3CCCC3)n(C3(C)CC3)c3ncnc(N)c23)cc1 [Example 140, 4-amino-6-(cyclopentylmethoxy)-N-(4-(methoxymethyl)phenyl)-7-(1-methylcyclopropyl)-7H-pyrrolo[2,3-d] pyrimidine-5-carboxamide]  52%
